Experimental data published in PubChem BioAssay (NCI).
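Cultured in 96-well plates, cells were exposed to test compound for 48 hours across five concentrations. At the GI50, growth is halved. TGI: total growth inhibition.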 Where a SMILES comes first, the peptide text is derived from it. [ ]: non-standard residue; d: D form. The star is where a group is joined. Bn2Val = CC(C)[C@@H](C(=O)*)N(Cc1ccccc1)Cc1ccccc1; NMeV = CN[C@H](C(=O)O)C(C)C; X29 = COc1ccc(CN*)c(OC)c1; dNMeA = CN[C@H](C)C(=O)O

Columns and labels:
Assay in all cases: NCI anticancer screen, dose series, 48 h
[1] = system: SW-620 colon
[2] = system: BT-549 breast
[3] = system: MCF7 breast
[4] = system: SNB-78 CNS
[5] = system: DLD-1 colon
[6] = system: DMS 273 small cell lung
[7] = system: DMS 114 small cell lung
[8] = system: KM20L2 colon
[9] = system: HOP-18 NSCLC
[10] = system: LXFL 529 NSCLC
[11] = system: M19-MEL melanoma
[12] = system: XF 498 CNS
[13] = system: RXF-631 renal

| SMILES | TGI [1] [µM] | TGI [2] [µM] | TGI [3] [µM] | other results |
| --- | --- | --- | --- | --- |
| CO[C@H]1O[C@@H]2CO[C@@H](c3ccccc3)O[C@H]2[C@@H]2C/C=C\CCC[C@@]12O | 81.6 | 43.8 | 44.9 | – |
| O=C(Sc1c(-c2ccccc2)c(=O)n(-c2ccccc2)c(=S)n1-c1ccccc1)c1cccs1 | > 100 | > 100 | > 100 | – |
| NC(Cc1c[nH]c2cc([N+](=O)[O-])ccc12)C(=O)O (centres undefined) | > 100 | > 100 | > 100 | – |
| COc1ccc(CNC(=O)[C@@H]2CCCN2C(=O)[C@@H](C)N(C)C(=O)[C@H](C(C)C)N(C)C(=O)[C@@H](NC(=O)[C@H](C(C)C)N(Cc2ccccc2)Cc2ccccc2)C(C)C)c(OC)c1 (Bn2Val-V[NMeV][dNMeA]P-X29) | 20.6 | 7.72 | 12 | – |
| CCCc1c(C(=O)OCC)[nH]c(-c2ccc(-c3[nH]c(C(=O)OCC)c(CCC)c3C(=O)OCC)s2)c1C(=O)OCC | > 100 | – | – | TGI [4]: > 100 µM; TGI [5]: > 100 µM; TGI [6]: > 100 µM; TGI [7]: > 100 µM; TGI [8]: > 100 µM; TGI [9]: > 100 µM; TGI [10]: > 100 µM; TGI [11]: > 100 µM; TGI [12]: > 100 µM |
| CCN(CC)CCCNC(=O)c1cc2cc(NC(=O)c3cc4cc([N+](=O)[O-])ccc4[nH]3)ccc2[nH]1 | > 100 | > 100 | > 100 | – |
| CN1CN(c2ccccc2)C2(CCN(CCCCCCF)CC2)C1=O | > 100 | > 100 | 60.6 | – |
| CN(C)c1ccc(/C=C/C(=O)N[C@@H]2C(=O)N3[C@@H]2SC(C)(C)[C@@H]3C(=O)O)cc1 | > 100 | > 100 | > 100 | – |
| CC(=O)NNc1nc(C)c(C(=O)NNC(=O)C(=O)Nc2cccc(C(C)=O)c2)s1 | > 100 | – | – | TGI [4]: > 100 µM; TGI [5]: 98.9 µM; TGI [6]: > 100 µM; TGI [7]: 34.2 µM; TGI [8]: > 100 µM; TGI [13]: 68.3 µM; TGI [11]: 43.5 µM; TGI [12]: 30.6 µM |
| OCC(CCc1ccccc1I)C1=CCC2(CC1)OCCO2 (centres undefined) | 61.5 | – | 55.1 | – |
| C=C(C)C1CC/C(C)=C/CC[C@]2(C)O[C@@H]2CCC2=CC1OC2=O (some centres undefined) | – | – | > 100 | GI50 [3]: > 100 µM |
| CN(C(=O)c1ccc2c(c1)sc1c(=O)n(C)c3ccccc3c12)c1ccccc1 | > 100 | > 100 | > 100 | – |
| Cn1c([C@H](C#N)C(=O)c2cc(O)ccc2[N+](=O)[O-])nc2ccccc21 | – | > 100 | > 100 | – |
| CN1N=C(c2ccncc2)OC1c1cccc(C(F)(F)F)c1 (centres undefined) | > 100 | – | – | – |
| Cc1cccc2nc3c(=O)[nH]c(=O)nc-3n(C)c12 | > 100 | > 100 | > 100 | – |
| CC(C)(O)C1CC[C@]2(C)[C@H]3CC[C@@H]4[C@@]5(C)CCCC(C)(C)[C@@H]5CC[C@@]4(C)[C@]3(C)CC[C@@H]12 (some centres undefined) | > 100 | > 100 | > 100 | – |
| COC(=O)[C@@](C)(COC(=O)C(C)(C)C)NC(=O)OC(C)(C)C | > 100 | > 100 | > 100 | – |
| O=C1C=C2CCC[C@H]3OC(=O)C[C@@]23CC1 | > 100 | – | – | – |

| SMILES | TGI [1] [µM] | TGI [2] [µM] | TGI [3] [µM] | other results |
| --- | --- | --- | --- | --- |
| [O-][n+]1c(CN2CCCCC2)nc2cccc3c2c1-c1ccccc1-3 | > 100 | > 100 | 76.5 | – |
| CC(C)OP(=O)(OC(C)C)C1=NN(c2ccc([N+](=O)[O-])cc2)C(P(=O)(OC(C)C)OC(C)C)=NN1c1ccc([N+](=O)[O-])cc1 | > 100 | – | – | TGI [5]: > 100 µM; TGI [6]: > 100 µM; TGI [7]: > 100 µM; TGI [8]: > 100 µM; TGI [9]: > 100 µM; TGI [10]: > 100 µM; TGI [11]: > 100 µM; TGI [12]: > 100 µM |
| CS(=O)(=O)c1nc(-c2cc3c(c(S(C)(=O)=O)n2)CCC3)cc2c1CCCC2 | > 100 | 83.8 | – | – |
| Nc1nccc(NCC2(CO)CCC2)n1 | > 100 | > 100 | > 100 | – |
| Cc1c(OCc2ccccc2)c(=O)ccn1CCc1c[nH]c2ccccc12 | > 100 | > 100 | 42.9 | – |
| CCOC(=O)C(NC(=O)CC)(Nc1ccc(S(=O)(=O)Nc2onc(C)c2C)cc1)C(F)(F)F (centres undefined) | > 100 | > 100 | > 100 | – |
| Cc1ccc(-c2cc(O)c3nc4ccccc4n3c2)cc1 | > 100 | > 100 | > 100 | – |
| O=c1c2ccccc2nc(-c2ccccc2)n1NC(=S)Nc1ccc(Cl)cc1 | > 100 | – | – | TGI [5]: > 100 µM; TGI [6]: > 100 µM; TGI [7]: > 100 µM; TGI [9]: > 100 µM; TGI [10]: > 100 µM; TGI [11]: > 100 µM |
| COc1ccccc1N=Nc1c(O)c(S(=O)(=O)O)cc2cc(S(=O)(=O)O)ccc12 | > 100 | > 100 | – | – |
| COC(=O)C(=O)C(C(=O)C(=O)Nc1cccc([N+](=O)[O-])c1)c1nc2ccc(Cl)cc2[nH]c1=O (centres undefined) | > 100 | > 100 | > 100 | – |
| CCOC(=O)C(C)Sc1nnc(COc2ccccc2OC)n1-c1ccccc1 (centres undefined) | 47 | – | – | TGI [4]: > 100 µM; TGI [5]: > 100 µM; TGI [6]: > 100 µM; TGI [7]: 28.1 µM; TGI [8]: > 100 µM; TGI [9]: > 100 µM; TGI [10]: > 100 µM; TGI [11]: > 100 µM |
| CC(C)(C)C(=O)OCC1OC(N=[N+]=[N-])C(OC(=O)C(C)(C)C)C(OC(=O)C(C)(C)C)C1OC(=O)C(C)(C)C (centres undefined) | > 100 | – | – | TGI [4]: > 100 µM; TGI [5]: > 100 µM; TGI [6]: > 100 µM; TGI [7]: > 100 µM; TGI [8]: > 100 µM; TGI [10]: > 100 µM; TGI [12]: > 100 µM |
| Nc1cccc(S(=O)(=O)Nc2nnc(S(N)(=O)=O)s2)c1 | > 100 | > 100 | > 100 | – |
| Cc1ccc(S(=O)(=O)[C@@H](Cl)[C@H]2N=C(Cl)NN=C2c2ccccc2)cc1 | 40.8 | 59 | 89.6 | – |
| COC(=O)CCc1c(Cc2ccc[nH]2)[nH]c(C(=O)OCc2ccccc2)c1C | 45.7 | – | 35.7 | – |
| CS[C@]12[C@@H]3C(=O)N(C)C(=O)[C@@H]3[C@](C)(C(=O)N1C)C(=O)N2c1ccccc1 | > 100 | > 100 | > 100 | – |
| O=C(O)CC[P+](c1ccccc1)(c1ccccc1)c1ccccc1 | > 100 | 81.8 | > 100 | – |
